Values quoted from earlier work in PubChem BioAssay AID1259409 (Chemical Carcinogenesis Research Information System (CCRIS), 2018).

System: rodent chemically induced tumor inhibition, incidence and multiplicity
Experiment: CCRIS tumor inhibitor studies
Conditions: Carcinogen: DIETHYLNITROSAMINE, 55-18-5, Dose [Inhibitor]: 0, Route [Inhibitor]: ORAL, Species: RAT, Strain/Sex: BD6/FEMALE, Promoter: NONE USED

In the case of `O=C1O[C@H]([C@@H](O)CO)C(O)=C1O`, the “tumour outcome (control, treated, inhibition, significance)” value (3 G/L IN DRINKING WATER BEGINNING 1 D PRIOR TO FIRST CARCINOGEN DOSE AND CONTINUING TO 2 D POST LAST CARCINOGEN DOSE, Target Tissue: Type of Lesion: LIVER: TUMOR, Dose [Carcinogen]: 80 MG/KG BW 1/WK FOR 8 WK) is given as 94%, 90%, 4%, not significant, the “tumour outcome (control, treated, inhibition, significance)” value (3 G/L IN DRINKING WATER FOR DURATION OF STUDY BEGINNING 1 D PRIOR TO FIRST CARCINOGEN DOSE (STUDY DURATION: 6 MO), Target Tissue: Type of Lesion: ESOPHAGUS: TUMOR, Dose [Carcinogen]: 80 MG/KG BW 1/WK FOR 6 WK) is given as 14%, 0%, 100%, not significant and the “tumour outcome (control, treated, inhibition, significance)” value (3 G/L IN DRINKING WATER FOR DURATION OF STUDY BEGINNING 1 D PRIOR TO FIRST CARCINOGEN DOSE (STUDY DURATION: 6 MO), Target Tissue: Type of Lesion: ESOPHAGUS: TUMOR, Dose [Carcinogen]: 80 MG/KG BW 1/WK FOR 10 WK) is given as 35%, 19%, 46%, not significant. The “tumour outcome (control, treated, inhibition, significance)” value (3 G/L IN DRINKING WATER FOR DURATION OF STUDY BEGINNING 1 D PRIOR TO FIRST CARCINOGEN DOSE (STUDY DURATION: 6 MO), Target Tissue: Type of Lesion: LIVER: TUMOR, Dose [Carcinogen]: 80 MG/KG BW 1/WK FOR 6 WK) was 52%, 25%, 52%, not significant, the “tumour outcome (control, treated, inhibition, significance)” value (3 G/L IN DRINKING WATER FOR DURATION OF STUDY BEGINNING 1 D PRIOR TO FIRST CARCINOGEN DOSE (STUDY DURATION: 6 MO), Target Tissue: Type of Lesion: LIVER: TUMOR, Dose [Carcinogen]: 80 MG/KG BW 1/WK FOR 10 WK) was 100%, 96%, 4%, not significant and the “tumour outcome (control, treated, inhibition, significance)” value (3 G/L IN DRINKING WATER FOR DURATION OF STUDY BEGINNING 2 D POST CARCINOGEN TREATMENT (STUDY DURATION: 6 MO), Target Tissue: Type of Lesion: ESOPHAGUS: TUMOR, Dose [Carcinogen]: 80 MG/KG BW 1/WK FOR 10 WK) was 35%, 10%, 71%, not significant. The “tumour outcome (control, treated, inhibition, significance)” value (10 G/L IN DRINKING WATER BEGINNING 1 D PRIOR TO FIRST CARCINOGEN DOSE AND CONTINUING TO 2 D POST LAST CARCINOGEN DOSE, Target Tissue: Type of Lesion: ESOPHAGUS: TUMOR, Dose [Carcinogen]: 80 MG/KG BW 1/WK FOR 8 WK) was 31%, 32%, -3%, not significant, the “tumour outcome (control, treated, inhibition, significance)” value (10 G/L IN DRINKING WATER BEGINNING 1 D PRIOR TO FIRST CARCINOGEN DOSE AND CONTINUING TO 2 D POST LAST CARCINOGEN DOSE, Target Tissue: Type of Lesion: LIVER: TUMOR, Dose [Carcinogen]: 80 MG/KG BW 1/WK FOR 8 WK) was 94%, 95%, -1%, not significant and the “tumour outcome (control, treated, inhibition, significance)” value (10 G/L IN DRINKING WATER FOR DURATION OF STUDY BEGINNING 1 D PRIOR TO FIRST CARCINOGEN DOSE (STUDY DURATION: 6 MO), Target Tissue: Type of Lesion: ESOPHAGUS: TUMOR, Dose [Carcinogen]: 80 MG/KG BW 1/WK FOR 10 WK) was 35%, 28%, 20%, not significant. The “tumour outcome (control, treated, inhibition, significance)” value (10 G/L IN DRINKING WATER FOR DURATION OF STUDY BEGINNING 1 D PRIOR TO FIRST CARCINOGEN DOSE (STUDY DURATION: 6 MO), Target Tissue: Type of Lesion: LIVER: TUMOR, Dose [Carcinogen]: 80 MG/KG BW 1/WK FOR 10 WK) was 100%, 88%, 12%, not significant, the “tumour outcome (control, treated, inhibition, significance)” value (10 G/L IN DRINKING WATER FOR DURATION OF STUDY BEGINNING 2 D POST CARCINOGEN TREATMENT (STUDY DURATION: 6 MO), Target Tissue: Type of Lesion: ESOPHAGUS: TUMOR, Dose [Carcinogen]: 80 MG/KG BW 1/WK FOR 10 WK) was 35%, 33%, 6%, not significant and the “tumour outcome (control, treated, inhibition, significance)” value (10 G/L IN DRINKING WATER FOR DURATION OF STUDY BEGINNING 2 D POST CARCINOGEN TREATMENT (STUDY DURATION: 6 MO), Target Tissue: Type of Lesion: LIVER: TUMOR, Dose [Carcinogen]: 80 MG/KG BW 1/WK FOR 10 WK) was 100%, 100%, 0%, not significant. The “tumour outcome (control, treated, inhibition, significance)” value (15 G/L IN DRINKING WATER BEGINNING 1 D PRIOR TO FIRST CARCINOGEN DOSE AND CONTINUING TO 2 D POST LAST CARCINOGEN DOSE, Target Tissue: Type of Lesion: ESOPHAGUS: TUMOR, Dose [Carcinogen]: 80 MG/KG BW 1/WK FOR 8 WK) was 31%, 26%, 16%, not significant and the “tumour outcome (control, treated, inhibition, significance)” value (15 G/L IN DRINKING WATER BEGINNING 1 D PRIOR TO FIRST CARCINOGEN DOSE AND CONTINUING TO 2 D POST LAST CARCINOGEN DOSE, Target Tissue: Type of Lesion: LIVER: TUMOR, Dose [Carcinogen]: 80 MG/KG BW 1/WK FOR 8 WK) was 94%, 90%, 4%, not significant.
